Test results: PubChem BioAssay AID2060497 (Molecular Pharmacology Branch, DTP, NCI, 2025)
pIC50: −log10 of the molar value.

Tested on: 317291-083-R-J1-PDC complex spheroids, viability
Assay: Anticancer human tumor 317291-083-R-J1-PDC patient-derived soft tissue sarcoma cell line growth inhibition [GQUAD]
Conditions: for pIC50: curve of first compound; for viability, T/C: stronger effect = lower value
Outline: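 Viability of tumor cells grown as complex spheroids with endothelial and stromal cells, exposed to drug combinations. Top concentration at or near clinical Cmax (else 10 microM), diluted in half-log increments.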
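Also: spheroids exposed to compounds for one week before readout.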
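For viability, T/C in this document: percent viability relative to DMSO vehicle wells taken as 100%.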

## C=CC(=O)N1CCN(c2nc(=O)n(-c3c(C)ccnc3C(C)C)c3nc(-c4c(O)cccc4F)c(F)cc23)C(C)C1 (configuration not stated) + Cc1[nH]c2ccc(F)cc2c1-c1nc2c3cccnc3c3ncccc3c2[nH]1
Second compound 0.0316 µM
  pIC50: < 5.00
Second compound 0.1 µM
  pIC50: < 5.00
Second compound 0.316 µM
  pIC50: < 5.00
Second compound 1 µM
  pIC50: < 5.00
Second compound 3.16 µM
  pIC50: < 5.00
Second compound 10 µM
  pIC50: 5.23
Second compound 0.0316 µM, first compound 0.0316 µM
  viability, T/C: 112%
Second compound 0.0316 µM, first compound 0.1 µM
  viability, T/C: 99.2%
Second compound 0.0316 µM, first compound 0.316 µM
  viability, T/C: 113%
Second compound 0.0316 µM, first compound 1 µM
  viability, T/C: 89.5%
Second compound 0.0316 µM, first compound 3.16 µM
  viability, T/C: 102%
Second compound 0.0316 µM, first compound 10 µM
  viability, T/C: 60.8%
Second compound 0.1 µM, first compound 0.0316 µM
  viability, T/C: 110%
Second compound 0.1 µM, first compound 0.1 µM
  viability, T/C: 97.4%
Second compound 0.1 µM, first compound 0.316 µM
  viability, T/C: 104%
Second compound 0.1 µM, first compound 1 µM
  viability, T/C: 116%
Second compound 0.1 µM, first compound 3.16 µM
  viability, T/C: 93.4%
Second compound 0.1 µM, first compound 10 µM
  viability, T/C: 71.8%
Second compound 0.316 µM, first compound 0.0316 µM
  viability, T/C: 101%
Second compound 0.316 µM, first compound 0.1 µM
  viability, T/C: 113%
Second compound 0.316 µM, first compound 0.316 µM
  viability, T/C: 105%
Second compound 0.316 µM, first compound 1 µM
  viability, T/C: 99.4%
Second compound 0.316 µM, first compound 3.16 µM
  viability, T/C: 104%
Second compound 0.316 µM, first compound 10 µM
  viability, T/C: 85.3%
Second compound 1 µM, first compound 0.0316 µM
  viability, T/C: 109%
Second compound 1 µM, first compound 0.1 µM
  viability, T/C: 102%
Second compound 1 µM, first compound 0.316 µM
  viability, T/C: 110%
Second compound 1 µM, first compound 1 µM
  viability, T/C: 104%
Second compound 1 µM, first compound 3.16 µM
  viability, T/C: 88.9%
Second compound 1 µM, first compound 10 µM
  viability, T/C: 73.2%
Second compound 3.16 µM, first compound 0.0316 µM
  viability, T/C: 93.3%
Second compound 3.16 µM, first compound 0.1 µM
  viability, T/C: 91.4%
Second compound 3.16 µM, first compound 0.316 µM
  viability, T/C: 96%
Second compound 3.16 µM, first compound 1 µM
  viability, T/C: 93.1%
Second compound 3.16 µM, first compound 3.16 µM
  viability, T/C: 74.7%
Second compound 3.16 µM, first compound 10 µM
  viability, T/C: 51.5%
Second compound 10 µM, first compound 0.0316 µM
  viability, T/C: 58.4%
Second compound 10 µM, first compound 0.1 µM
  viability, T/C: 69.9%
Second compound 10 µM, first compound 0.316 µM
  viability, T/C: 78.5%
Second compound 10 µM, first compound 1 µM
  viability, T/C: 74.3%
Second compound 10 µM, first compound 3.16 µM
  viability, T/C: 74.9%
Second compound 10 µM, first compound 10 µM
  viability, T/C: 32.7%
